Measurements as given in US9518018B2, “3-alkoxy, thioalkyl and amino-4-amino-6-(substituted)picolinates and their use as herbicides” (Dow AgroSciences LLC, priority 2011, dated 2016).

Test system: desired test plant species
Experiment: Foliar-applied postemergence herbicidal activity in direct seeded rice (Table 6)
Format: in vivo
Details: 21 DAA
Text: Seeds or nutlets of the desired test plant species were planted in a soil matrix prepared by mixing a loam soil (43 percent silt, 19 percent clay, and 38 percent sand, with a pH of about 8.1 and an organic matter content of about 1.5 percent) and river sand in an 80 to 20 ratio. The soil matrix was contained in plastic pots with a surface area of 139.7 cm^2. When required to ensure good germination and healthy plants, a fungicide treatment and/or other chemical or physical treatment was applied. The plants were grown for 10-17 d in a greenhouse with an approximate 14-h photoperiod which was maintained at about 29° C. during the day and 26° C. during the night. Nutrients and water were added on a regular basis and supplemental lighting was provided with overhead metal halide 1000-Watt lamps as necessary. The plants were employed for testing when they reached the second or third true leaf stage. Treatments consisted of compounds 45, 34, and 66. Weighed amounts of technical compounds were placed in individual 25 mL glass vials and dissolved in 8 mL of 97:3 v/v acetone-DMSO to obtain stock solutions. […] The spray application solutions were prepared by removing 4 mL of the stock solution and diluting with 4 mL of 97:3 v/v acetone-DMSO and continued serial dilution to obtain 1⁄2×, 1⁄4×, 1⁄8×, and 1/16× rates of the high rate. Spray solutions were diluted to the appropriate final concentrations with the addition of 8 mL of an aqueous mixture of 1.875% (v/v) Agri-dex crop oil concentrate. The final 12-mL spray solutions each contained 1.25% (v/v) Agri-dex crop oil concentrate, 32.3% acetone, and 1.0% DMSO. Compound requirements are based upon a 12 mL application volume at a rate of 187 L/ha. Spray solutions were applied to the plant material with an overhead Mandel track sprayer equipped with […] nozzles calibrated to deliver 187 L/ha over an application area of 0.503 square meters (m^2) at a spray height of 18 inches ([…]) above average plant canopy height. Control plants were sprayed in the same manner with the solvent blank. The treated plants and control plants were placed in a greenhouse as described above and watered by sub-irrigation to prevent wash-off of the test compounds. After approximately 3 weeks, the condition of the test plants, compared with that of the untreated plants, was determined visually and scored on a scale of 0 to 100 percent where 0 corresponds to no injury and 100 corresponds to complete kill. By applying the well-accepted probit analysis as described by J. Berkson in Journal of the […], 48, 565 (1953) and by D. Finney in “Probit Analysis” Cambridge University Press (1952) or by plotting the mean data and fitting a logarithmic curve to the portion of the data where there was a dose response using Microsoft Excel®, the above data can be used to calculate GR50 and GR90 values, which are defined as growth reduction factors that correspond to the effective dose of herbicide required to kill or control 50 percent or 90 percent, respectively, of a target plant.

COc1c(C(=O)O)nc(-c2ccc(Cl)c(OC)c2F)c(F)c1N [Compound 45, 4-amino-6-(4-chloro-2-fluoro-3-methoxyphenyl)-5-fluoro-3-methoxypicolinic acid]
Mean Visual Injury (%)-21 Days After Application AESSE (AESSE (Aeschynomene sensitiva, sensitive jointvetch), 4.38 g ae/ha): 100% | Mean Visual Injury (%)-21 Days After Application AESSE (AESSE (Aeschynomene sensitiva, sensitive jointvetch), 8.75 g ae/ha): 100% | Mean Visual Injury (%)-21 Days After Application AESSE (AESSE (Aeschynomene sensitiva, sensitive jointvetch), 17.5 g ae/ha): 100% | Mean Visual Injury (%)-21 Days After Application AESSE (AESSE (Aeschynomene sensitiva, sensitive jointvetch), 35 g ae/ha): 100% | Mean Visual Injury (%)-21 Days After Application AESSE (AESSE (Aeschynomene sensitiva, sensitive jointvetch), 70 g ae/ha): 100% | GR50 AESSE (AESSE (Aeschynomene sensitiva, sensitive jointvetch), dose to kill or control 50 percent): <4.38 g ae/ha | GR90 AESSE (AESSE (Aeschynomene sensitiva, sensitive jointvetch), dose to kill or control 90 percent): <4.38 g ae/ha | Mean Visual Injury (%)-21 Days After Application BRAPP (BRAPP (Brachiaria platyphylla, broadleaf signalgrass), 4.38 g ae/ha): 72% | Mean Visual Injury (%)-21 Days After Application BRAPP (BRAPP (Brachiaria platyphylla, broadleaf signalgrass), 8.75 g ae/ha): 80% | Mean Visual Injury (%)-21 Days After Application BRAPP (BRAPP (Brachiaria platyphylla, broadleaf signalgrass), 17.5 g ae/ha): 95% | Mean Visual Injury (%)-21 Days After Application BRAPP (BRAPP (Brachiaria platyphylla, broadleaf signalgrass), 35 g ae/ha): 95% | Mean Visual Injury (%)-21 Days After Application BRAPP (BRAPP (Brachiaria platyphylla, broadleaf signalgrass), 70 g ae/ha): 98% | GR50 BRAPP (BRAPP (Brachiaria platyphylla, broadleaf signalgrass), dose to kill or control 50 percent): <4.38 g ae/ha | GR90 BRAPP (BRAPP (Brachiaria platyphylla, broadleaf signalgrass), dose to kill or control 90 percent): 22.0 g ae/ha | Mean Visual Injury (%)-21 Days After Application CYPDI (CYPDI (Cyperus difformis, small-flower flatsedge), 4.38 g ae/ha): 75% | Mean Visual Injury (%)-21 Days After Application CYPDI (CYPDI (Cyperus difformis, small-flower flatsedge), 8.75 g ae/ha): 97% | Mean Visual Injury (%)-21 Days After Application CYPDI (CYPDI (Cyperus difformis, small-flower flatsedge), 17.5 g ae/ha): 98% | Mean Visual Injury (%)-21 Days After Application CYPDI (CYPDI (Cyperus difformis, small-flower flatsedge), 35 g ae/ha): 100% | Mean Visual Injury (%)-21 Days After Application CYPDI (CYPDI (Cyperus difformis, small-flower flatsedge), 70 g ae/ha): 100% | GR50 CYPDI (CYPDI (Cyperus difformis, small-flower flatsedge), dose to kill or control 50 percent): <4.38 g ae/ha | GR90 CYPDI (CYPDI (Cyperus difformis, small-flower flatsedge), dose to kill or control 90 percent): 8.8 g ae/ha | Mean Visual Injury (%)-21 Days After Application CYPES (CYPES (Cyperus esculentus, yellow nutsedge), 4.38 g ae/ha): 73% | Mean Visual Injury (%)-21 Days After Application CYPES (CYPES (Cyperus esculentus, yellow nutsedge), 8.75 g ae/ha): 78% | Mean Visual Injury (%)-21 Days After Application CYPES (CYPES (Cyperus esculentus, yellow nutsedge), 17.5 g ae/ha): 85% | Mean Visual Injury (%)-21 Days After Application CYPES (CYPES (Cyperus esculentus, yellow nutsedge), 35 g ae/ha): 99% | Mean Visual Injury (%)-21 Days After Application CYPES (CYPES (Cyperus esculentus, yellow nutsedge), 70 g ae/ha): 95% | GR50 CYPES (CYPES (Cyperus esculentus, yellow nutsedge), dose to kill or control 50 percent): <4.38 g ae/ha | GR90 CYPES (CYPES (Cyperus esculentus, yellow nutsedge), dose to kill or control 90 percent): 27.1 g ae/ha | Mean Visual Injury (%)-21 Days After Application CYPIR (CYPIR (Cyperus iria, rice flatsedge), 4.38 g ae/ha): 95% | Mean Visual Injury (%)-21 Days After Application CYPIR (CYPIR (Cyperus iria, rice flatsedge), 8.75 g ae/ha): 97% | Mean Visual Injury (%)-21 Days After Application CYPIR (CYPIR (Cyperus iria, rice flatsedge), 17.5 g ae/ha): 100% | Mean Visual Injury (%)-21 Days After Application CYPIR (CYPIR (Cyperus iria, rice flatsedge), 35 g ae/ha): 100% | Mean Visual Injury (%)-21 Days After Application CYPIR (CYPIR (Cyperus iria, rice flatsedge), 70 g ae/ha): 100% | GR50 CYPIR (CYPIR (Cyperus iria, rice flatsedge), dose to kill or control 50 percent): <4.38 g ae/ha | GR90 CYPIR (CYPIR (Cyperus iria, rice flatsedge), dose to kill or control 90 percent): <4.38 g ae/ha | Mean Visual Injury (%)-21 Days After Application ECHCG (ECHCG (Echinochloa crus-galli, barnyardgrass), 4.38 g ae/ha): 92% | Mean Visual Injury (%)-21 Days After Application ECHCG (ECHCG (Echinochloa crus-galli, barnyardgrass), 8.75 g ae/ha): 92% | Mean Visual Injury (%)-21 Days After Application ECHCG (ECHCG (Echinochloa crus-galli, barnyardgrass), 17.5 g ae/ha): 95% | Mean Visual Injury (%)-21 Days After Application ECHCG (ECHCG (Echinochloa crus-galli, barnyardgrass), 35 g ae/ha): 98% | Mean Visual Injury (%)-21 Days After Application ECHCG (ECHCG (Echinochloa crus-galli, barnyardgrass), 70 g ae/ha): 100% | GR50 ECHCG (ECHCG (Echinochloa crus-galli, barnyardgrass), dose to kill or control 50 percent): <4.38 g ae/ha | GR90 ECHCG (ECHCG (Echinochloa crus-galli, barnyardgrass), dose to kill or control 90 percent): <4.38 g ae/ha
